Patent US11464770B2, “Anticancer pharmaceutical composition” (NATIONAL CANCER CENTER, priority 2016, dated 2022)
Where two headings read alike, the source gives them in different places.

System: breast cancer cell lines (e.g. MDA-MB-231, SK-BR-3, MDA-MB-468, HCC1954)
Assay: Cell based assay, cell viability (CellTiter-Glo), breast cancer cell lines
Summary of the method: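 Commercial tumour lines, detached with trypsin-EDTA, were seeded and incubated 24 h. They were then dosed to 0–2 μM final, grown 72 h, and assessed for viability using CellTiter-Glo.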

[1] = Breast cancer cell line MDA-MB-231-L/DOX, 72 hours, CellTiter-Glo, read-out: IC50, MDA-MB-231-L/DOX
[2] = Homo sapiens, Breast cancer cell line BT-20, 72 hours, CellTiter-Glo, read-out: IC50, BT-20
[3] = Homo sapiens, Breast cancer cell line HCC1395, 72 hours, CellTiter-Glo, read-out: IC50, HCC1395
[4] = Homo sapiens, Breast cancer cell line HCC1954, 72 hours, CellTiter-Glo, read-out: IC50, HCC1954
[5] = Homo sapiens, Breast cancer cell line JIMT-1, 72 hours, CellTiter-Glo, read-out: IC50, JIMT-1
[6] = Homo sapiens, Breast cancer cell line MCF7, 72 hours, CellTiter-Glo, read-out: IC50, MCF7
[7] = Homo sapiens, Breast cancer cell line MDA-MB-231, 72 hours, CellTiter-Glo, read-out: IC50, MDA-MB-231
[8] = Homo sapiens, Breast cancer cell line MDA-MB-468, 72 hours, CellTiter-Glo, read-out: IC50, MDA-MB-468
[9] = Homo sapiens, Breast cancer cell line SK-BR-3, 72 hours, CellTiter-Glo, read-out: IC50, SK-BR-3
[10] = Homo sapiens, BT-20 cells, 72 hours treatment, CellTiter-Glo cell viability, read-out: IC50, Breast cancer cell line BT-20
[11] = Homo sapiens, HCC1395 cells, 72 hours treatment, CellTiter-Glo cell viability, read-out: IC50, Breast cancer cell line HCC1395
[12] = Homo sapiens, HCC1954 cells, 72 hours treatment, CellTiter-Glo cell viability, read-out: IC50, Breast cancer cell line HCC1954
[13] = Homo sapiens, JIMT-1 cells, 72 hours treatment, CellTiter-Glo cell viability, read-out: IC50, Breast cancer cell line JIMT-1
[14] = Homo sapiens, MCF7 cells, 72 hours treatment, CellTiter-Glo cell viability, read-out: IC50, Breast cancer cell line MCF7
[15] = Homo sapiens, MDA-MB-231 cells, 72 hours treatment, CellTiter-Glo cell viability, read-out: IC50, Breast cancer cell line MDA-MB-231
[16] = Homo sapiens, MDA-MB-468 cells, 72 hours treatment, CellTiter-Glo cell viability, read-out: IC50, Breast cancer cell line MDA-MB-468
[17] = Homo sapiens, SK-BR-3 cells, 72 hours treatment, CellTiter-Glo cell viability, read-out: IC50, Breast cancer cell line SK-BR-3
[18] = MDA-MB-231-L/DOX cells, 72 hours treatment, CellTiter-Glo cell viability, read-out: IC50, Breast cancer cell line MDA-MB-231-L/DOX

Row | Structure (SMILES) | IC50 [1] [µM] | IC50 [2] [µM] | IC50 [3] [µM] | IC50 [4] [µM] | IC50 [5] [µM] | IC50 [6] [µM] | IC50 [7] [µM] | IC50 [8] [µM] | IC50 [9] [µM] | IC50 [10] [µM] | IC50 [11] [µM] | IC50 [12] [µM] | IC50 [13] [µM] | IC50 [14] [µM] | IC50 [15] [µM] | IC50 [16] [µM] | IC50 [17] [µM] | IC50 [18] [µM]
1 | COc1cc(S(F)(F)(F)(F)F)ccc1C[S+]([O-])c1[nH]c2c(Br)ccc(Cl)c2c(=O)c1C(C)=O (stereo not drawn) [Compound 75, 3-acetyl-8-bromo-5-chloro-2-((2-methoxy-4-(pentafluoro--sulfanyl)benzyl)sulfinyl)quinolin-4(1H)-one] | > 2 | > 2 | > 2 | > 2 | > 2 | > 2 | 1.16 | > 2 | 1.7 |  |  |  |  |  |  |  |  | 
2 | CC(=O)c1c([S+]([O-])Cc2cccnc2)[nH]c2c(Br)ccc(Cl)c2c1=O (stereo not drawn) [Compound 84, 3-acetyl-8-bromo-5-chloro-2-((pyridin-3-ylmethyl)sulfinyl)quinolin-4(1H)-one] |  |  |  |  |  |  |  |  |  | > 2 | > 10 | 1.12 | > 10 | > 2 | 1.6 | 1.04 | 0.76 | > 2
3 | CC(=O)c1c([S+]([O-])Cc2ccc(C#N)cc2)[nH]c2c(Br)ccc(Cl)c2c1=O (stereo not drawn) [Compound 73, 4-(((3-acetyl-8-bromo-5-chloro-4-oxo-1,4-dihydroquinolin-2-yl)sulfinyl)methyl)benzonitrile] | > 2 | > 2 | > 10 | > 2 | > 10 | > 2 | > 2 | > 2 | 1.2 |  |  |  |  |  |  |  |  | 
4 | CC(=O)c1c([S+]([O-])Cc2ccc(F)c(Cl)c2)[nH]c2c(Br)ccc(Cl)c2c1=O (stereo not drawn) [Compound 31, 3-acetyl-8-bromo-5-chloro-2-((3-chloro-4-fluorobenzyl)sulfinyl)quinolin-4(1H)-one] | > 2 | > 2 | > 10 | > 2 | > 10 | > 2 | 1.33 | > 2 | 0.95 |  |  |  |  |  |  |  |  | 
5 | CC(=O)c1c([S+]([O-])Cc2cc(F)cc(S(F)(F)(F)(F)F)c2)[nH]c2c(Br)ccc(Cl)c2c1=O (stereo not drawn) [Compound 76, 3-acetyl-8-bromo-5-chloro-2-((3-fluoro-5-(pentafluoro--sulfanyl)benzyl)sulfinyl)quinolin-4(1H)-one] | > 2 | > 2 | > 10 | > 2 | > 10 | > 2 | > 2 | > 2 | 1.72 |  |  |  |  |  |  |  |  | 
6 | CC(=O)c1c([S+]([O-])Cc2cc(Cl)ccc2Cl)[nH]c2c(Br)ccc(Cl)c2c1=O (stereo not drawn) [Compound 44, 3-acetyl-8-bromo-5-chloro-2-((2,5-dichlorobenzyl)sulfinyl)quinolin-4(1H)-one] | > 2 | > 2 | > 10 | > 2 | > 10 | > 2 | > 2 | > 2 | 1.06 |  |  |  |  |  |  |  |  | 
7 | CC(=O)c1c(S(=O)(=O)Cc2ccccc2)[nH]c2c(Br)ccc(Cl)c2c1=O [Compound 34, 3-acetyl-2-(benzylsulfonyl)-8-bromo-5-chloroquinolin-4(1H)-one] | > 2 | > 2 | > 10 | > 2 | > 10 | > 2 | > 2 | > 2 | 1.27 |  |  |  |  |  |  |  |  | 
8 | CC(=O)c1c([S+]([O-])Cc2ccc([S+]([O-])C(F)(F)F)cc2)[nH]c2c(Br)ccc(Cl)c2c1=O (stereo not drawn) [Compound 64, 3-acetyl-8-bromo-5-chloro-2-((4-((trifluoromethyl)sulfinyl)benzyl)sulfinyl)quinolin-4(1H)-one] | > 2 | > 2 | > 10 | > 2 | > 10 | > 2 | > 2 | > 2 | 1.03 |  |  |  |  |  |  |  |  | 
9 | CC(=O)c1c([S+]([O-])Cc2ccc(F)cc2F)[nH]c2c(Br)ccc(Cl)c2c1=O (stereo not drawn) [Compound 29, 3-acetyl-8-bromo-5-chloro-2-((2,4-difluorobenzyl)sulfinyl)quinolin-4(1H)-one] | > 2 | > 2 | > 10 | > 2 | > 10 | > 2 | > 2 | > 2 | 0.85 |  |  |  |  |  |  |  |  | 
10 | CC(=O)c1c([S+]([O-])Cc2ccc([N+](=O)[O-])cc2)[nH]c2c(Br)ccc(Cl)c2c1=O (stereo not drawn) [Compound 33, 3-acetyl-8-bromo-5-chloro-2-((4-nitrobenzyl)sulfinyl)quinolin-4(1H)-one] | > 2 | > 2 | > 10 | > 2 | > 10 | > 2 | > 2 | > 2 | 1 |  |  |  |  |  |  |  |  | 
11 | COc1cccc(C[S+]([O-])c2[nH]c3c(Br)ccc(Cl)c3c(=O)c2C(C)=O)c1 (stereo not drawn) [Compound 55, 3-acetyl-8-bromo-5-chloro-2-((3-methoxybenzyl)sulfinyl)quinolin-4(1H)-one] | > 2 | > 2 | > 10 | > 2 | > 10 | > 2 | > 2 | > 2 | 1.1 |  |  |  |  |  |  |  |  | 
12 | CC(=O)c1c([S+]([O-])Cc2cc(F)cc(F)c2)[nH]c2c(Br)ccc(Cl)c2c1=O (stereo not drawn) [Compound 46, 3-acetyl-8-bromo-5-chloro-2-((3,5-difluorobenzyl)sulfinyl)quinolin-4(1H)-one] | > 2 | > 2 | > 10 | > 2 | > 10 | > 2 | > 2 | > 2 | 1.16 |  |  |  |  |  |  |  |  | 
13 | CC(=O)c1c([S+]([O-])Cc2c(F)cccc2Cl)[nH]c2c(Br)ccc(Cl)c2c1=O (stereo not drawn) [Compound 74, 3-acetyl-8-bromo-5-chloro-2-((2-chloro-6-fluorobenzyl)sulfinyl)quinolin-4(1H)-one] | > 2 | > 2 | > 10 | > 2 | > 10 | > 2 | > 2 | > 2 | 1.06 |  |  |  |  |  |  |  |  | 
14 | CC(=O)c1c([S+]([O-])Cc2c(F)c(F)c(F)c(F)c2F)[nH]c2c(Br)ccc(Cl)c2c1=O (stereo not drawn) [Compound 78, 3-acetyl-8-bromo-5-chloro-2-(((perfluorophenyl)methyl)sulfinyl)quinolin-4(1H)-one] | > 2 | > 2 | > 10 | > 2 | > 10 | > 2 | > 2 | > 2 | 1.2 |  |  |  |  |  |  |  |  | 
15 | Cc1cc(C[S+]([O-])c2[nH]c3c(Cl)ccc(Cl)c3c(=O)c2C(=O)C(C)C)no1 (stereo not drawn) [Compound 86, 5,8-dichloro-3-isobutyryl-2-(((5-methylisoxazol-3-yl)methyl)sulfinyl)quinolin-4(1H)-one] |  |  |  |  |  |  |  |  |  | > 2 | > 10 | 0.5 | > 10 | 1.47 | 1.58 | 0.58 | 0.58 | 1.11
16 | CC(=O)c1c([S+]([O-])Cc2ccc([N+](=O)[O-])cc2)[nH]c2c(Cl)ccc(Cl)c2c1=O (stereo not drawn) [Compound 57, 3-acetyl-5,8-dichloro-2-((4-nitrobenzyl)sulfinyl)quinolin-4(1H)-one] | > 2 | > 2 | > 10 | > 2 | > 10 | > 2 | > 2 | > 2 | 1.34 |  |  |  |  |  |  |  |  | 
17 | CC(=O)c1c([S+]([O-])Cc2ccc(C(F)(F)F)cc2)[nH]c2c(Br)ccc(Cl)c2c1=O (stereo not drawn) [Compound 70, 3-acetyl-8-bromo-5-chloro-2-((4-(trifluoromethyl)benzyl)sulfinyl)quinolin-4(1H)-one] | > 2 | > 2 | > 10 | > 2 | > 10 | > 2 | > 2 | > 2 | 1.21 |  |  |  |  |  |  |  |  | 
18 | CC(=O)c1c([S+]([O-])Cc2cc(C)on2)[nH]c2c(Br)ccc(Cl)c2c1=O (stereo not drawn) [Compound 51, 3-acetyl-8-bromo-5-chloro-2-(((5-methylisoxazol-3-yl)methyl)sulfinyl)quinolin-4(1H)-one] | > 2 | > 2 | > 10 | > 2 | > 10 | > 2 | 1.55 | > 2 | 0.54 |  |  |  |  |  |  |  |  | 
19 | CC(=O)c1c([S+]([O-])Cc2cccc(F)c2)[nH]c2c(Br)ccc(Cl)c2c1=O (stereo not drawn) [Compound 50, 3-acetyl-8-bromo-5-chloro-2-((3-fluorobenzyl)sulfinyl)quinolin-4(1H)-one] | > 2 | > 2 | > 10 | > 2 | > 10 | > 2 | > 2 | > 2 | 1.01 |  |  |  |  |  |  |  |  | 
20 | CC(=O)c1c([S+]([O-])Cc2ccc(C(F)(F)F)o2)[nH]c2c(Br)ccc(Cl)c2c1=O (stereo not drawn) [Compound 72, 3-acetyl-8-bromo-5-chloro-2-(((5-(trifluoromethyl)furan-2-yl)methyl)sulfinyl)quinolin-4(1H)-one] | > 2 | > 2 | > 2 | > 2 | > 2 | > 2 | 1.38 | > 2 | 0.85 |  |  |  |  |  |  |  |  | 
21 | COC(=O)c1ccc(C[S+]([O-])c2[nH]c3c(Cl)ccc(Cl)c3c(=O)c2C(C)=O)o1 (stereo not drawn) [Compound 89, methyl 5-(((3-acetyl-5,8-dichloro-4-oxo-1,4-dihydroquinolin-2-yl)sulfinyl)methyl)furan-2-carboxylate] |  |  |  |  |  |  |  |  |  | > 2 | > 10 | 1.34 | > 10 | > 2 | > 2 | 1.36 | 1.36 | > 2
